The values below come from patent publication US20090239846A1, “Novel Compounds” (Glaxo Group Limited, priority 2005, published 2009).

For one assay, the target named is T1, Recombinant human p38α (Homo sapiens, UniProt Q16539).
T1 construct: GST; made in house
Put plainly: Fluorescence anisotropy kinase binding assay (standard or low volume). The conditions noted are these: 12 nM p38α, 5 nM fluorescent ligand. From the text: The concentration of kinase enzyme should preferably be >2×Kf. The concentration of fluorescent ligand required will depend on the instrumentation used, and the fluorescent and physicochemical properties. The concentration used must be lower than the concentration of kinase enzyme, and preferably less than half the kinase enzyme concentration.
The fluorescent ligand is the following compound:
[drawing 329] • which is derived from 5-[2-(4-aminomethylphenyl)-5-pyridin-4-yl-1H-imidazol-4-yl]-2-chlorophenol and rhodamine green. Recombinant human p38α was expressed as a GST-tagged protein. To activate this protein, 3.5 μM unactivated p38α was incubated in 50 mM Tris-HCl pH 7.5, 0.1 mM EGTA, 0.1% 2-mercaptoethanol, 0.1 mM sodium vanadate, 10 mM MgAc, 0.1 mM ATP with 200 nM MBP-MKK6 DD at 30 degrees for 30 mins. Following activation p38α was re-purified and the activity assessed using a standard filter-binding assay. Protocol: All components are dissolved in buffer of composition 62.5 mM HEPES, pH 7.5, 1.25 mM CHAPS, 1 mM DTT, 12.5 mM MgCl2 with final concentrations of 12 nM p38α and 5 nM fluorescent ligand. 30 μl of this reaction mixture is added to wells containing 1 μl of various concentrations of test compound (0.28 nM-16.6 μM final) or DMSO vehicle (3% final) in NUNC 384 well black microtitre plate and equilibrated for 30-60 mins at room temperature. Fluorescence anisotropy is read in Molecular Devices Acquest (excitation 485 nm/emission 535 nm). Definitions: Ki=dissociation constant for inhibitor binding • Kf=dissociation constant for fluorescent ligand binding
The concentration of kinase enzyme should preferably be 2×Kf. The concentration of fluorescent ligand required will depend on the instrumentation used, and the fluorescent and physicochemical properties. The concentration used must be lower than the concentration of kinase enzyme, and preferably less than half the kinase enzyme concentration. The fluorescent ligand is the following compound:
which is derived from 5-[2-(4-aminomethylphenyl)-5-pyridin-4-yl-1H-imidazol-4-yl]-2-chlorophenol and rhodamine green. Recombinant human p38α was expressed as a GST-tagged protein. To activate this protein, 3.5 μM unactivated p38α was incubated in 50 mM Tris-HCl pH 7.5, 0.1 mM EGTA, 0.1% 2-mercaptoethanol, 0.1 mM sodium vanadate, 10 mM MgAc, 0.1 mM ATP with 200 nM MBP-MKK6 DD at 30 degrees for 30 mins. Following activation p38α was re-purified and the activity assessed using a standard filter-binding assay. Protocol: All components are dissolved in buffer of composition 62.5 mM HEPES, pH 7.5, 1.25 mM CHAPS, 1 mM DTT, 12.5 mM MgCl2 with final concentrations of 12 nM p38α and 5 nM fluorescent ligand. […] of this reaction mixture is added to wells containing 0.1 μl of various concentrations of test compound (0.02 nM-25 μM final) or DMSO vehicle (1.7% final) in Greiner low volume 384 well black microtitre plate and equilibrated for 30-60 mins at room temperature. Fluorescence anisotropy is read in Molecular Devices Acquest (excitation 485 nm/emission 535 nm). Definitions: Ki dissociation constant for inhibitor binding • Kf=dissociation constant for fluorescent ligand binding It is noted that there are two assay formats shown above for the Fluorescence anisotropy kinase binding assay. The only difference between these two assays is the volume used and the plate type. […] The results described herein may have been performed in either assay format and are not differentiated as to which.
Background: In fluorescence polarisation assays a small probe gives low polarisation when free and higher when bound to something large.

In assay [1] the test system is influx of neutrophils to the lung in LPS-challenged rats. Put plainly: Rat LPS neutrophilia model. The class given is in vivo. The settings on record: LPS aerosol, lavage 4 hours later, in at least one of the range of conditions tested, significance p<0.05. The method, then:
The effect of compounds on the influx of neutrophils to the lung in LPS-challenged rats is evaluated as follows. The test compound is suspended in one of the following solutions: 0.5% tween 80/PBS, 0.5% tween 80/saline, 10% EtOH/saline (with pH adjusted to 2.0, or 8.0 with HCl, or unadjusted), Saline (pH 2.0, 6.5 or 8.0, 0.5% Tragacanth, 1% DMSO/20% Encapsin/Saline, or acidified 5% Tragacanth. The suspension process may be aided by the use of a glass homogenizer. For intratracheal administration, the animals are anesthetized with inhaled isoflurane and placed in a supine position, the trachea is intubated with a steel gavage needle (1.5 inch, 22 gauge, small ball) or a Penn-Century Microsprayer Aerosolizer (model IA-LB) and 200 ul of dosing solution is delivered. The animals are visually monitored during the recovery process, which typically occurs within two minutes.
Rats treated with compound or vehicle (15 min-24 hours pretreatment) are exposed to an LPS aerosol (100 ug/ml) for 15 min. Four hours later the rats are euthanized with pentobarbital (100 mg/kg, i.p.) and the airways are lavaged with 5 washes of 5 ml of phosphate buffered saline. The harvested cells are stained (Diffquick) and counted to determine total and differential cell data. In a typical study, macrophages represent 40-70% of the total cells, and polymorphonuclear cells 30-60% of the total cells. Inhibition of neutrophil levels relative to no compound controls is calculated based on the differential counts.
The assay has varying conditions, such as concentration, pretreat time, form of the compound (crystalline, amorphous, salts, micronised), and a wet or dry application of the compound.
The data is obtained as % inhibition using a particular concentration and pretreat time.

Structures can show the parent of a compound that is named as a salt.

T1 sequence (Q16539 whole entry): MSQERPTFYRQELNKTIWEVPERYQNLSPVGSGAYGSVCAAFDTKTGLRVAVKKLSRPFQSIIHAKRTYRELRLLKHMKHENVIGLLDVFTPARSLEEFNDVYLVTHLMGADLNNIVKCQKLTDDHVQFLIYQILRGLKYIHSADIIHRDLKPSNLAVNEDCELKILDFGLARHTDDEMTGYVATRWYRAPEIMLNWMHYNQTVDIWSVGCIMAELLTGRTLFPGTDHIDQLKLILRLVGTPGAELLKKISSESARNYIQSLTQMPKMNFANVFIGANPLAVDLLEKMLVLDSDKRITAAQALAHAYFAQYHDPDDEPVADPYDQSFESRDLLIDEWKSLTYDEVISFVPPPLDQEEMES

Turning to `CSc1nc(-c2cc(C(=O)O)ccc2C)c2c(n1)N(c1c(F)cccc1F)C(=O)NC2` [1(d), 3-[8-(2,6-Difluorophenyl)-2-(methylthio)-7-oxo-5,6,7,8-tetrahydropyrimido[4,5-d]pyrimidin-4-yl]-4-methylbenzoic acid], the “active in the assay (pIC50, p38α binding)” value (from here on “active in the assay”) on Recombinant human p38α is “active”. On the same count and under the same terms, the result for `Cc1ccc(C(=O)NCC2CC2)cc1-c1nc(N2CCC(N)CC2)nc2c1CNC(=O)N2c1c(F)cccc1F` [2(b), 3-[2-(4-Amino-1-piperidinyl)-8-(2,6-difluorophenyl)-7-oxo-5,6,7,8-tetrahydropyrimido[4,5-d]pyrimidin-4-yl]-N-(cyclopropylmethyl)-4-methylbenzamide] reads “active”; that for `Cc1ccc(C(=O)NCCc2ccc(F)cc2)cc1-c1nc(N2CCC(N)CC2)nc2c1CNC(=O)N2c1c(F)cccc1F` [3(b), 3-[2-(4-Amino-1-piperidinyl)-8-(2,6-difluorophenyl)-7-oxo-5,6,7,8-tetrahydropyrimido[4,5-d]pyrimidin-4-yl]-N-[2-(4-fluorophenyl)ethyl]-4-methylbenzamide], “active”. As for `Cc1ccc(NC(=O)c2ccsc2)cc1-c1nc(NC2CC(C)(C)NC(C)(C)C2)nc2c1CNC(=O)N2c1c(F)cccc1F` [7(d), N-(3-{8-(2,6-Difluorophenyl)-7-oxo-2-[(2,2,6,6-tetramethyl-4-piperidinyl)amino]-5,6,7,8-tetrahydropyrimido[4,5-d]pyrimidin-4-yl}-4-methylphenyl)-3-thiophenecarboxamide], the “active in the assay” value on Recombinant human p38α is “active”. As for `CSc1nc(-c2cc(N)ccc2C)c2c(n1)N(c1c(F)cccc1F)C(=O)NC2` [10(b), 5-(5-Amino-2-methylphenyl)-1-(2,6-difluorophenyl)-7-(methylthio)-3,4-dihydropyrimido[4,5-d]pyrimidin-2(1H)-one], the “active in the assay” value at Recombinant human p38α is reported as “active”.

With `Cc1ccc(C(=O)NCc2ccccc2)cc1-c1nc(NC2CCN(C(=O)OC(C)(C)C)CC2)nc2c1CNC(=O)N2c1c(F)cccc1F` [21(a), 1,1-Dimethylethyl 4-{[8-(2,6-difluorophenyl)-4-(2-methyl-5-{[(phenylmethyl)amino]carbonyl}phenyl)-7-oxo-5,6,7,8-tetrahydropyrimido[4,5-d]pyrimidin-2-yl]amino}-1-piperidinecarboxylate], on Recombinant human p38α, the “active in the assay” value is “active”. For the compound `Cc1ccc(C(=O)Nc2ccc(F)cc2)cc1-c1nc(NCCNC(C)C)nc2c1CNC(=O)N2c1c(F)cccc1F` [30(c), 3-[8-(2,6-difluorophenyl)-2-({2-[(1-methylethyl)amino]ethyl}amino)-7-oxo-5,6,7,8-tetrahydropyrimido[4,5-d]pyrimidin-4-yl]-N-(4-fluorophenyl)-4-methylbenzamide], the “active in the assay” value on Recombinant human p38α was “active”.

Consider `CNCCNc1nc(-c2cc(C(=O)Nc3ccc(F)cc3)ccc2C)c2c(n1)N(c1c(F)cccc1F)C(=O)NC2` [31(b), 3-(8-(2,6-difluorophenyl)-2-{[2-(methylamino)ethyl]amino}-7-oxo-5,6,7,8-tetrahydropyrimido[4,5-d]pyrimidin-4-yl)-N-(4-fluorophenyl)-4-methylbenzamide], for which, at Recombinant human p38α, the “active in the assay” value is listed as “active”. Take `CNC1CCN(c2nc(-c3cc(C(=O)Nc4ccc(F)cc4)ccc3C)c3c(n2)N(c2c(F)cccc2F)C(=O)NC3)CC1` [33(b), 3-{8-(2,6-difluorophenyl)-2-[4-(methylamino)-1-piperidinyl]-7-oxo-5,6,7,8-tetrahydropyrimido[4,5-d]pyrimidin-4-yl}-N-(4-fluorophenyl)-4-methylbenzamide]: on Recombinant human p38α, the “active in the assay” value is reported as “active”. As to `CNCCNc1nc(-c2cc(C(=O)NC(C)C)ccc2C)c2c(n1)N(c1c(F)cccc1F)C(=O)NC2` [38(b), 3-(8-(2,6-difluorophenyl)-2-{[2-(methylamino)ethyl]amino}-7-oxo-5,6,7,8-tetrahydropyrimido[4,5-d]pyrimidin-4-yl)-4-methyl-N-(1-methylethyl)benzamide], the “active in the assay” value on Recombinant human p38α is “active”. With `CC(C)NC(=O)c1cccc(-c2nc(NCCN(C)C)nc3c2CNC(=O)N3c2c(F)cccc2F)c1` [88(c), 3-(8-(2,6-difluorophenyl)-2-{[2-(dimethylamino)ethyl]amino}-7-oxo-5,6,7,8-tetrahydropyrimido[4,5-d]pyrimidin-4-yl)-N-(1-methylethyl)benzamide], the “active in the assay” value at Recombinant human p38α was “active”.

As for `CSc1nc(-c2cc(C(=O)N(C)C)ccc2C)c2c(n1)N(c1c(F)cccc1F)C(=O)NC2` [149(a), 3-[8-(2,6-difluorophenyl)-2-(methylthio)-7-oxo-5,6,7,8-tetrahydropyrimido[4,5-d]pyrimidin-4-yl]-N,N,4-trimethylbenzamide], on Recombinant human p38α, the “active in the assay” value is on record as “active”. In the case of `CNC(=O)c1ccc(C)c(-c2nc(SC)nc3c2CNC(=O)N3c2c(F)cccc2F)c1` [163(a), 3-[8-(2,6-difluorophenyl)-2-(methylthio)-7-oxo-5,6,7,8-tetrahydropyrimido[4,5-d]pyrimidin-4-yl]-N,4-dimethylbenzamide], on Recombinant human p38α, the “active in the assay” value is reported as “active”.

Take `Cc1ccc(C(=O)Nc2ccc(F)cc2)cc1-c1nc(N(C)CCCN(C)C)nc2c1CNC(=O)N2c1c(F)cccc1F` [Example 9]: in assay [1], the inhibition of neutrophilia result was “statistically nonsignificant inhibition of neutrophilia”.

In the case of `CSc1nc(-c2cc(NC(=O)c3ccsc3)ccc2C)c2c(n1)N(c1c(F)cccc1F)C(=O)NC2` [Example 10(c), N-{3-[8-(2,6-difluorophenyl)-2-(methylthio)-7-oxo-5,6,7,8-tetrahydropyrimido[4,5-d]pyrimidin-4-yl]-4-methylphenyl}-3-thiophenecarboxamide], at Recombinant human p38α, the “active in the assay” value is recorded as “active”. For `Cc1ccc(C(=O)NC(C)C)cc1-c1nc(N(C)CCN(C)C)nc2c1CNC(=O)N2c1c(F)cccc1F` [Example 36, 3-{8-(2,6-difluorophenyl)-2-[[2-(dimethylamino)ethyl](methyl)amino]-7-oxo-5,6,7,8-tetrahydropyrimido[4,5-d]pyrimidin-4-yl}-4-methyl-N-(1-methylethyl)benzamide], the inhibition of neutrophilia entry in assay [1] was “statistically significant inhibition of neutrophilia”. Turning to `CCN(CC)CCCC(C)Nc1nc(-c2cc(C(=O)NC(C)C)ccc2C)c2c(n1)N(c1c(F)cccc1F)C(=O)NC2` (centres unmarked) [Example 85, 3-[2-{[4-(diethylamino)-1-methylbutyl]amino}-8-(2,6-difluorophenyl)-7-oxo-5,6,7,8-tetrahydropyrimido[4,5-d]pyrimidin-4-yl]-4-methyl-N-(1-methylethyl)benzamide trifluoroacetate], the “active in the assay” value on Recombinant human p38α is on record as “active”.
